Data taken from patent US8759366B2, “Aminopyrimidines as SYK inhibitors” (Merck Sharp & Dohme Corp., priority 2009, dated 2014).

biological target: rhSYK (Homo sapiens (Human), UniProt P43405); settings: read-out: rhSYK activity

| SMILES | IC50 [nM] |
| --- | --- |
| Cc1cc(Nc2nccc(C(F)(F)F)n2)cc(-c2cnc(C(O)C(F)(F)F)s2)c1 (centres unmarked) [Example 6, 2,2,2-trifluoro-1-[5-(3-methyl-5-{[4-(trifluoromethyl)pyrimidin-2-yl]amino}phenyl)-1,3-thiazol-2-yl]ethanol] | < 100 |
| CCc1cc(Nc2nccc(C(F)(F)F)n2)cc(-c2cnc(C(C)(C)O)s2)c1 [Example 30, 2-[5-(3-ethyl-5-{[4-(trifluoromethyl)pyrimidin-2-yl]amino}phenyl)-1,3-thiazol-2-yl]propan-2-ol] | < 100 |
| COc1ccnc(Nc2cc(C)cc(-c3cnc(C4(Cl)CCN(S(N)(=O)=O)CC4)s3)c2)n1 [54(2), 4-Chloro-4-(5-{3-[(4-methoxypyrimidin-2-yl)amino]-5-methylphenyl}-1,3-thiazol-2-yl)-piperidine-1-sulfonamide] | < 100 |
| OC(c1ncc(-c2cccc(Nc3nccc(C(F)(F)F)n3)c2)s1)(C(F)(F)F)C(F)(F)F [Example 4A-3] | < 100 |
| Cc1cc(Nc2nccc(C)n2)cc(-c2cnc(C3(O)CC4(C(=O)O)CCC3(C)C4(C)C)s2)c1 (centres unmarked) [Example 4B-32] | < 100 |
| COc1ccnc(Nc2cc(C)cc(-c3cnc(C4(O)CCC5(CC4)OCCO5)s3)c2)n1 [Example 4B-16] | < 100 |
| CC(C)(c1ncc(-c2cc(N)cc(Nc3nccc(C(F)(F)F)n3)c2)s1)S(N)(=O)=O [Example 71, 2-[5-(3-amino-5-{[4-(trifluoromethyl)pyrimidin-2-yl]amino}phenyl)-1,3-thiazol-2-yl]propane-2-sulfonamide] | < 100 |
| O=C1C[C@@H]2C[C@@](O)(c3ncc(-c4cccc(Nc5nccc(C(F)(F)F)n5)c4)s3)C[C@@H]2C1 [Example 4B-7] | 100 to 1000 |
| Cc1cc(Nc2nccc(C)n2)cc(-c2cnc([C@]3(O)[C@@H]4CC5C[C@@H]3C[C@](C(=O)O)(C5)C4)s2)c1 [Example 4B-31] | < 100 |
| Cc1cc(Nc2ncc(F)c(C3CC3)n2)cc(-c2cnc(C(O)(CO)C(F)(F)F)s2)c1 (centres unmarked) [Example 58, 2-(5-{3-[(4-cyclopropyl-5-fluoropyrimidin-2-yl)amino]-5-methylphenyl}-1,3-thiazol-2-yl)-3,3,3-trifluoropropane-1,2-diol] | < 100 |
| OC(c1ncc(-c2cccc(Nc3nccc(C(F)(F)F)n3)c2)s1)C1CC1 (centres unmarked) [Example 4A-5, cyclopropyl[5-(3-{[4-(trifluoromethyl)pyrimidin-2-yl]amino}phenyl)-1,3-thiazol-2-yl]methanol] | < 100 |
| CC1(C)CC(O)(c2ncc(-c3cccc(Nc4nccc(C(F)(F)F)n4)c3)s2)CC(C)(C)S1 [Example 4B-8] | 1000 to 10000 |
| CC(=O)Nc1cc(Nc2nccc(C(F)(F)F)n2)cc(-c2cnc(C(C)(C)S(N)(=O)=O)s2)c1 [Example 72, N-(3-[2-(2-sulfamoylpropan-2-yl)-1,3-thiazol-5-yl]-5-{[4-(trifluoromethyl)pyrimidin-2-yl]amino}phenyl)acetamide] | < 100 |
| COC(=O)NS(=O)(=O)N1CCC(O)(c2ncc(-c3cc(C)cc(Nc4nccc(OC)n4)c3)s2)CC1 [54(1), Methyl {[4-hydroxy-4-(5-{3-[(4-methoxypyrimidin-2-yl)amino]-5-methylphenyl}-1,3-thiazol-2-yl)piperidin-1-yl]sulfonyl}carbamate] | < 100 |
| CC(C)(c1ncc(-c2cc(Nc3nccc(C(F)(F)F)n3)cc([N+](=O)[O-])c2)s1)S(N)(=O)=O [Example 70, 2-[5-(3-nitro-5-{[4-(trifluoromethyl)pyrimidin-2-yl]amino}phenyl)-1,3-thiazol-2-yl]propane-2-sulfonamide] | 100 to 1000 |

Further lines, results first:

| IC50 [nM] | SMILES |
| --- | --- |
| < 100 | OC1(c2ncc(-c3cc(NCC(F)(F)F)cc(Nc4nccc(C(F)(F)F)n4)c3)s2)CCC1 [Example 27, 1-[5-(3-[(2,2,2-trifluoroethyl)amino]-5-{[4-(trifluoromethyl)pyrimidin-2-yl]amino}phenyl)-1,3-thiazol-2-yl]cyclobutanol] |
| 100 to 1000 | CCOC(=O)C1CC=C(c2ncc(-c3cc(C)cc(Nc4nccc(C(F)(F)F)n4)c3)s2)CC1 (centres unmarked) [Example 34, ethyl 4-[5-(3-methyl-5-{[4-(trifluoromethyl)pyrimidin-2-yl]amino}phenyl)-1,3-thiazol-2-yl]cyclohex-3-ene-1-carboxylate] |
| < 100 | Cc1cc(Nc2nccc(C(F)(F)F)n2)cc(-c2cnc(C3CCC(C(=O)O)CC3)s2)c1 (centres unmarked) [Example 36, 4-[5-(3-methyl-5-{[4-(trifluoromethyl)pyrimidin-2-yl]amino}phenyl)-1,3-thiazol-2-yl]cyclohexanecarboxylic acid] |
| < 100 | Cc1cc(Nc2nccc(C(F)(F)F)n2)cc(-c2cnc(C3(O)CCC(N)(C(=O)O)CC3)s2)c1 (centres unmarked) [Example 41, 1-amino-4-hydroxy-4-[5-(3-methyl-5-{[4-(trifluoromethyl)pyrimidin-2-yl]amino}phenyl)-1,3-thiazol-2-yl]cyclohexanecarboxylic acid] |
| 100 to 1000 | Cc1cc(Nc2nccc(C(F)(F)F)n2)cc(-c2cnc(C3(O)CCN(c4cccc(F)c4)CC3)s2)c1 [4D-10] |
| < 100 | Cc1cc(Nc2nccc(C)n2)cc(-c2cnc(C3(O)CCC(CN)CC3)s2)c1 (centres unmarked) [Example 4C-3] |
| < 100 | CCOC(=O)N1CCC(O)(c2ncc(-c3cccc(Nc4nccc(C(F)(F)F)n4)c3)s2)CC1 [4D-4] |
| < 100 | Cc1cc(Nc2nccc(C(F)(F)F)n2)cc(-c2cnc(CS(N)(=O)=O)s2)c1 [Example 75, 1-[5-(3-methyl-5-{[4-(trifluoromethyl)pyrimidin-2-yl]amino}phenyl)-1,3-thiazol-2-yl]methanesulfonamide] |
| < 100 | Cc1cc(Nc2nccc(C(F)(F)F)n2)cc(-c2cnc(C3=CC(=O)NCCC3)s2)c1 [Example 10B-2] |
| < 100 | Cc1cc(Nc2nccc(C(F)(F)F)n2)cc(-c2cnc(C3(O)CCC(C4(N)CC4)CC3)s2)c1 (centres unmarked) [Example 4C-19] |
| 100 to 1000 | Cc1cc(Nc2nccc(C(F)(F)F)n2)cc(-c2cnc(C3(O)CCN(c4ccccc4C)CC3)s2)c1 [4D-9] |
| < 100 | OC1(c2ncc(-c3cc(Nc4nccc(C(F)(F)F)n4)cc(C(F)F)c3)s2)CCC1 [Example 28, 1-{5-[3-(difluoromethyl)-5-{[4-(trifluoromethyl)pyrimidin-2-yl]amino}phenyl]-1,3-thiazol-2-yl}cyclobutanol] |
| < 100 | Cc1cc(Nc2nccc(C(F)(F)F)n2)cc(-c2cnc([C@]3(O)CC[C@@H](c4noc(=O)[nH]4)CC3)s2)c1 [Example 39, 3-{cis-4-Hydroxy-4-[5-(3-methyl-5-{[4-(trifluoromethyl)pyrimidin-2-yl]amino}phenyl)-1,3-thiazol-2-yl]cyclohexyl}-1,2,4-oxadiazol-5(4H)-one] |
| < 100 | Cc1cc(Nc2nccc(C(F)(F)F)n2)cc(-c2cnc(C3(O)CCN(c4ccc(F)cc4)CC3)s2)c1 [4D-12] |
| < 100 | Cc1cc(Nc2nccc(C(F)(F)F)n2)cc(-c2cnc(C3(O)CCC(N(C)C)CC3)s2)c1 (centres unmarked) [Example 4C-33] |
| < 100 | Cc1cc(Nc2nccc(C(F)(F)F)n2)cc(-c2cnc(C(O)C(F)(F)F)s2)c1 (single isomer, unassigned) [Example 6-3] |
| < 100 | CNC(=O)N1CCC(O)(c2ncc(-c3cc(C)cc(Nc4nccc(C(F)(F)F)n4)c3)s2)CC1 [Example 52, 4-hydroxy-N-methyl-4-[5-(3-methyl-5-{[4-(trifluoromethyl)pyrimidin-2-yl]amino}phenyl)-1,3-thiazol-2-yl]piperidine-1-carboxamide] |
